Measurements from patent publication US20040009955A1, “Method of prophylaxis” (priority 2002, published 2004).

Test system: MT-1 breast cancer cells
Assay: Symptom free survival of nude rats inoculated with MT-1 breast cancer cells (treatment efficacy against skeletal metastases)
Type: in vivo, nude rats (Han: rnu/rnu Rowett)
Conditions: for increase in survival relative to the control: Wilcoxon rank sum test
[1] = Without Aredia, 300 kBq/ka ^223Ra (regimen A)

Procedure: The effect of ^223Ra in prolonging symptom free survival of rate was studied for two treatment regimens [A] comparative and [B] according to the invention.
Treatment regimen [A]: Animals were treated seven days after tumor cell inoculation. At this time animal body weights varied between 80 and 110 grams and animals were randomized in groups so the average weight for a group was about 100 g at the time of treatment. The treatment groups received 11 or 30 kBq of ^223Ra administered by tail vein injection while animals in the control group were injected with an equivalent volume of 5 mM sodium citrate solution.
Treatment regimen [B]: 3-Amino-1-hydroxypropylidene bisphosphonate, di-sodium salt (Aredia™, Novartis AG, Switzerland), was added as a supplemental treatment to ^223Ra. Animals in the treatment groups were treated on day 7 after tumor cell inoculation with 10 or 30 kBq of ^223Ra. The following day, 1.5 mg/kg b.w. of Aredia™, was administered by i.v. injection. Animals in the control group received 5 mM sodium citrate solution on day 7 and 1.5 mg/kg b.w. of Aredia™ on day 8.
Symptom free animals were followed for at least 50 days after the treatment. The significance of treatment response was related to symptom free survival and evaluated using the Wilcoxon rank sum test.

## [223Ra] [^223Ra, radium-223]
60 kBq ^223Ra, regimen A
  survival improvement compared to the control group: not significant
60 kBq ^223Ra, regimen A (1/5)
  symptom free survivors: 20%
100 kBq/kg ^223Ra, regimen A (5/14)
  symptom free survivors beyond 50 days: 36%
100 kBq/kg ^223Ra, regimen A
  increase in survival relative to the control: significant at the 1% level
100 kBq/kg and 300 kBq/kg ^223Ra groups taken together, regimen A, P <0.05
  increase in survival compared to the control group, groups taken together: significant
300 kBq/kg ^223Ra, regimen A
  increase in survival relative to the control: significant at the 1% level
Without Aredia, 100 kBq/kg ^223Ra (regimen A)
  Survival beyond 67 day: 33%
Without Aredia, 100 kBq/kg ^223Ra i.v. day 7 after tumor cell inoculation (regimen A)
  Mean survival: 38 days
[1]
  Survival beyond 67 day: 0%
  Survival range: 27-61
Without Aredia, 300 kBq/ka ^223Ra i.v. day 7 (regimen A)
  Mean survival: 38 days
